Columns and labels:
human hepatocytes = assay: Metabolites in hepatocytes in vitro; assay type: in vitro ADME
clinical [1] = assay type: in vivo, human; conditions: human, in vivo; for concentration at 1 h / concentration at 4 h: both sexes
Procedure: • 1. […] Treatment is administered as one sachet daily for the initial 3 weeks and then increased if tolerated to one sachet twice daily. […] Sampling times are randomly assigned to occur at either 1 or 4 hours post-dose at the 12 week visit and the other time at the 24 week visit. • Treatment duration: 24 weeks • 2.
(§1) • Protocol AMX3500: sparse sampling in 87 subjects with ALS. Approximately 2 samples are collected for each subject, 1 or 4 hours post dose following 12 and 24 weeks of treatment. • Protocol A35-002: rich sampling in 14 healthy adults. Approximately 21 samples are collected over 24 hours for each subject on two occasions, once following a high fat meal and the other under fasting conditions.
Subjects were advised to take the drug before a meal. […] Referred to as protocol 3500.
A study was carried out to examine plasma concentration data in various subgroups for the protocol AMX3500 Phase 2 study. This example summarizes plasma concentrations of TUDCA and 2 metabolites, also related acids, UDCA, the de-conjugated TUDCA metabolite, and GUDCA, the glycine conjugate of UDCA.
For each of the 2 treatment arms (treatment and placebo), subjects were further divided into 2 sample sequence groups for schedule of pharmacokinetic measurements: • 1. 1 hour post-dose for the Week 12 visit and 4 hours post-dose for the Week 24 visit • 2. 4 hours post-dose for the Week 12 visit and 1 hour post-dose for the Week 24 visit
Twenty-four distinct medication descriptions were identified as containing antibiotics. Dates of antibiotic use were compared to dates of visits and if the antibiotic use date range contained the visit date, then that visit was flagged for that subject's data for antibiotic use. […] These antibiotics could hypothetically be in a subject's body still if this event occurred. However, it was observed that only a small number of subjects took antibiotics near to visit dates but not overlapping visit dates. In other cases, subjects were taking antibiotics on the date of one visit but not the others. Some subjects are therefore in both categories of antibiotic use and nonuse, though no individual visits for a subject are counted in both categories at the same time.
Subjects whose race were recorded as “Black” or “African American” were evaluated according to the standard Glomerular Filtration Rate (eGFR) rating for that race. The other standard eGFR rating used, sometimes referred to as a standard for people who are White, was applied to subjects of all other races. These rates were analyzed as continuous in mL/min/1.73 m2 units and as the following categories: • 1. Less than 90 mL/min/1.73 m^2 • 2. Equal to or greater than 90 mL/min/1.73 m^2
Age was converted from a continuous variable to 2 categories: • 1. As old or older than 65 years old • 2. Younger than 65 years old
All boxplots boxes are bounded at the 25th and 75th percentile, with whiskers at 10th and 90th percentiles, outliers beyond that as points, the black line as median, and red line as mean.

clinical [2] = assay type: in vivo, human; conditions: human, in vivo
Procedure: as §1
A total of 14 healthy subjects were enrolled in order to have no fewer than 12 subjects complete. A predefined mix of gender was selected.
Each study period followed the same study design (FIG. 1). Subjects were screened for inclusion in the study up to 28 days before dosing. Subjects were admitted to the clinical unit during Study Day −2 for Period 1 and Day −1 for Period 2 and were dosed in the morning of Day 1. On the night prior to Period 1 the subjects in the fasted/fed or fed/fasted sequence were fasted for a minimum of 10 h prior to dosing.
The solution was stirred until the powder was mostly dissolved.
Any departures from the intended regimen were recorded in the eCRFs. All dose administrations were performed in the study center under the supervision of appropriately trained staff.
Subjects were provided with a light snack and were then fasted from all food and drink (except water) until the following morning, when they were provided with a high-fat breakfast. The breakfast was consumed over a maximum period of 25 min, and dosing occurred 30 min after the start of breakfast. Subjects were encouraged to eat their meal evenly over the 25 min period. For this trial the subject was deemed compliant if they consumed >80% of the high-fat standard breakfast.
The subjects in the 24-h baseline and in the fasted condition Period remained fasted up to 4 h post-dose and were offered a standardized meal to be taken between 4.00 and 5.00 h post-dose. Subjects in the fed condition were fasted overnight and received a high-fat standard breakfast 30 minutes pre-dose and then remained fasted for 4.00 to 5.00 h post-dose when they received a standardized meal.
Venous blood samples were withdrawn via an indwelling cannula or by venipuncture according to the time schedule presented in Table 5 Table, Table 6, and Table 7.
Blood samples of approximately 4 mL were collected into 4 mL BD Vacutainer Plastic K2EDTA Tubes with Lavender Hemogard Closure, and was gently inverted approximately 8 times. The tubes were then immediately stored on ice and processed within 60 min of collection by centrifugation at 1500 g for 10 min at 2 to 8° C. The resultant plasma was separated equally into 2 aliquots and transferred to 2 mL appropriately labelled primary and backup polypropylene cryovials.
Actual elapsed time from dosing was to be used for the final plasma PK parameter calculations after database lock.

Plasma protein = Plasma protein binding in vitro; assay type: in vitro ADME; conditions: co-administered in vitro
[3] = Plasma protein binding in vitro; assay type: in vitro ADME; conditions: plasma, co-administered in vitro
[4] = within 24 hours; cited from earlier work
[5] = Population pharmacokinetic model and simulations of PB and PAA (healthy subjects and ALS patients); set-up: species or system human; conditions: for Cmax, Mean: from individual Bayesian (post hoc) parameter estimates; for Cmax, 2.5th percentile / Cmax, 97.5th percentile / Cmax, Geometric mean / Cmax, Median: post hoc Bayesian estimates; for CL/F, apparent (oral) metabolic clearance of phenylbutyrate to phenylacetate / Ka, PB oral absorption rate constant under fasting conditions / Ka, oral absorption rate constant when phenylbutyrate is administered with food / V/F, apparent volume of distribution of phenylbutyrate: population PK
From the text: The order of administration with and without food was randomly assigned. […] Subjects were advised to take the drug before a meal. […] No inter-occasion variability (IOV) was included.

[6] = Steady-state plasma concentration
[7] = both sexes, elimination half-lives (range)

Q: Which results are given for `C[C@H](CCC(=O)NCCS(=O)(=O)O)[C@H]1CC[C@H]2[C@@H]3[C@@H](O)C[C@@H]4C[C@H](O)CC[C@]4(C)[C@H]3CC[C@]12C` [TURSO, taurursodiol]?
A: metabolites detected in human hepatocytes versus rat and minipig hepatocytes (human hepatocytes): also detected in rat and minipig hepatocytes; concentration at 1 h (clinical [1]; Plasma Concentration, Mean): 503 ng/mL; concentration at 4 h (clinical [1]; Plasma Concentration, Mean): 636 ng/mL; concentration at 1 h (clinical [1]; Plasma Concentration, Median): 248 ng/mL; concentration at 4 h (clinical [1]; Plasma Concentration, Median): 446 ng/mL; concentration at 1 h (clinical [1]; [6]): 448 ng/mL; concentration at 4 h (clinical [1]; [6]): 566 ng/mL; Plasma Concentration, Median (clinical [1]; both): 20.0 ng/mL; Plasma Concentration, Min (clinical [1]; both): 20.0 ng/mL; steady state reached by (clinical [1]; both): ≤ 12 Week; Plasma Concentration, Min (clinical [1]; both, 1 h): 20.0 ng/mL; Plasma Concentration, Min (clinical [1]; both, 4 h): 20.0 ng/mL; accumulation in plasma after once- or twice-daily dosing (clinical [1]): little accumulation; effect of age on steady-state plasma concentration (clinical [1]): no difference; effect of mild renal insufficiency on steady-state plasma concentration (clinical [1]): no discernible difference; steady-state plasma concentrations versus endogenous levels (clinical [1]): at least an order of magnitude higher than endogenous levels; AUC(0-inf) (clinical [2]; both sexes, AUC(0-inf)): 3910 ng·h/mL; AUC(0-t) (clinical [2]; both sexes, AUC(0-last)): 4360 ng·h/mL; Cmax (clinical [2]; both sexes, Cmax): 741 ng/mL; half-life (clinical [2]; both sexes, T1/2): 4.34 h; Tmax (clinical [2]; both sexes, Tmax): 4.5 h; Tmax (clinical [2]; both sexes, Tmax Median): 4.5 h; Vd/F (clinical [2]; both sexes, Vz/F): 1600 L; half-life (clinical [2]; [7]): 2.51 to 8.71 h; Cmax (clinical [2]; both sexes, mean Cmax): 871 ng/mL; Cmax (clinical [2]; both sexes, po, Cmax): 741 ng/mL; Tmax (clinical [2]; both sexes, po, Tmax, Median): 4.5 h; AUG(0-last) (clinical [2]; both): 4360 (79.4) ng.h/ml; Tmax (clinical [2]; both): 10.00 h; increase in exposure (AUC) with high-fat, high-calorie meal (clinical [2]; both): 46%; time of maximum plasma concentrations (range) (clinical [2]; both): 1.50 to 10.00 h; AUC(0-last), Adj Geo Mean (clinical [2]; both, po): 4460 ng·h/mL; Cmax, Adj Geo Mean (clinical [2]; both, po): 755 ng/mL; median time to Cmax (clinical [2]): 4.5 h; Plasma protein binding (Plasma protein): ~99%; fraction unbound [3]: 0.02

Q: Which “fraction excreted in the urine as phenylacetylglutamine” value [4] does the source give for `O=C(O)CCCc1ccccc1` [PB, sodium phenylbutyrate] here?
A: Its value is 80-100%.

Q: And the “accumulation in plasma after once- or twice-daily dosing” value (clinical [1])?
A: The value was “no accumulation”.

Q: And the “effect of age on pharmacokinetics” value ([5]; ALS patients aged 65-76 versus less than 65 years, model-based analysis)?
A: Its value is “no significant difference”.

Q: And the “Cmax, Mean” value ([5]; ALS patients, Fasting)?
A: The value was 131000 ng/mL.

Q: What about the “Cmax, 2.5th percentile” value ([5]; ALS patients, Fasting) of the same compound?
A: The value was 10300 ng/mL.

Q: What about the “Cmax, 97.5th percentile” value ([5]; ALS patients, Fasting) of the same compound?
A: The value was 414000 ng/mL.

Q: And the “Cmax, Geometric mean” value ([5]; ALS patients, Fasting)?
A: Its value is 90900 ng/mL.

Q: And the “Cmax, Median” value ([5]; ALS patients, Fasting)?
A: Its value is 97900 ng/mL.

Q: And the “Cmax, Mean” value ([5]; ALS patients, Fed)?
A: Its value is 48400 ng/mL.

Q: And the “Cmax, 2.5th percentile” value ([5]; ALS patients, Fed)?
A: Its value is 8740 ng/mL.

Q: What about the “Cmax, 97.5th percentile” value ([5]; ALS patients, Fed) of the same compound?
A: Its value is 112000 ng/mL.

Q: What about the “Cmax, Geometric mean” value ([5]; ALS patients, Fed) of the same compound?
A: The value was 39400 ng/mL.

Q: And the “Cmax, Median” value ([5]; ALS patients, Fed)?
A: Its value is 43900 ng/mL.

Q: What about the “estimated steady-state mean Cmax” value ([5]; ALS patients, based on population PK) of the same compound?
A: Its value is 131000 ng/mL.

Q: And the terminal elimination half-life ([5]; based on typical values for CLPB/F and VPB/F)?
A: Its terminal elimination half-life is 0.45 h.

Q: What about the “effect of mild renal insufficiency on pharmacokinetics” value ([5]; eGFR greater than 60 mL/min, model-based analysis) of the same compound?
A: Its value is “no significant correlation”.

Q: What about the “decrease in Ka, fed versus fasting” value ([5]; final model projection) of the same compound?
A: The value was 60%.

Q: And the “relationship between exposure and body weight” value ([5]; population PK analysis)?
A: The value was “not appreciably affected by body weight”.

Q: What about the “CL/F, apparent (oral) metabolic clearance of phenylbutyrate to phenylacetate” value ([5]; Bootstrap Median) of the same compound?
A: Its value is 14.7 L/h.

Q: And the “Ka, PB oral absorption rate constant under fasting conditions” value ([5]; Bootstrap Median)?
A: Its value is 1.96.

Q: What about the “Ka, oral absorption rate constant when phenylbutyrate is administered with food” value ([5]; Bootstrap Median) of the same compound?
A: Its value is 0.779.

Q: And the “V/F, apparent volume of distribution of phenylbutyrate” value ([5]; Bootstrap Median)?
A: Its value is 9.7 L.

Q: And the “CL/F, apparent (oral) metabolic clearance of phenylbutyrate to phenylacetate” value ([5]; Final Model mean estimate)?
A: Its value is 14.8 L/h.

Q: What about the “Ka, PB oral absorption rate constant under fasting conditions” value ([5]; Final Model mean estimate) of the same compound?
A: Its value is 1.92.

Q: What about the “Ka, oral absorption rate constant when phenylbutyrate is administered with food” value ([5]; Final Model mean estimate) of the same compound?
A: The value was 0.767.

Q: And the “V/F, apparent volume of distribution of phenylbutyrate” value ([5]; Final Model mean estimate)?
A: The value was 9.6 L.

Q: And the half-life (clinical [2]; both sexes, T1/2)?
A: Its half-life is 0.46 h.

Q: And the Tmax (clinical [2]; both sexes, Tmax)?
A: Its Tmax is 0.5 h.

Q: What about the Tmax (clinical [2]; both sexes, Tmax Median) of the same compound?
A: The Tmax was 0.5 h.

Q: What about the half-life (clinical [2]; [7]) of the same compound?
A: Its half-life is 0.4 to 0.71 h.

Q: And the Cmax (clinical [2]; both sexes, mean Cmax)?
A: The Cmax was 188000 ng/mL.

Q: And the Cmax (clinical [2]; both sexes, po, Cmax)?
A: Its Cmax is 188000 ng/mL.

Q: What about the “AUC(0-inf) Adj Geo Mean” value (clinical [2]; both) of the same compound?
A: Its value is 261000 ng·h/mL.

Q: What about the “AUC(0-last), Adj Geo Mean” value (clinical [2]; both) of the same compound?
A: The value was 241000 ng·h/mL.

Q: What about the “Cmax, Adj Geo Mean” value (clinical [2]; both) of the same compound?
A: Its value is 191000 ng/mL.

Q: What about the Tmax (clinical [2]; both) of the same compound?
A: Its Tmax is 0.25 h.

Q: And the “concentrations remained quantifiable until” value (clinical [2]; both)?
A: Its value is 3.00 to 5.00 h.

Q: What about the “decrease in AUC with high-fat, high-calorie meal” value (clinical [2]; both) of the same compound?
A: The value was 55%.

Q: And the “time at which plasma concentrations typically peaked” value (clinical [2]; both)?
A: The value was 0.5 to 1 h.

Q: What about the “time by which eliminated from systemic circulation” value (clinical [2]; both) of the same compound?
A: The value was no more than 6 h.

Q: And the “time by which plasma concentrations fell below LLOQ” value (clinical [2]; both)?
A: Its value is 4 to 5 h.

Q: And the “time from which plasma concentrations were evident” value (clinical [2]; both)?
A: The value was 0.25 h.

Q: What about the “time of maximum plasma concentrations (range)” value (clinical [2]; both) of the same compound?
A: The value was 0.25 to 0.50 h.

Q: What about the “median time to Cmax” value (clinical [2]) of the same compound?
A: Its value is 1 h.

Q: And the fraction unbound [3]?
A: Its fraction unbound is 0.18.
